Legend:
[1] = literature report; cited from earlier work
[2] = system: synaptosomes from the striatal area of rat brain (dopamine release); test: Dopamine release from striatal synaptosomes; format: cell-based, rat (Sprague-Dawley)
Experimental: Dopamine release was measured by preparing synaptosomes from the striatal area of rat brain obtained from Sprague-Dawley rats generally according to the procedures set forth by Nagy et al., J. Neurochem., Vol. 43, pp. 1114-1123 (1984). Striata from 4 rats were homogenized in 2 ml of 0.32M sucrose buffered with 5 mM HEPES (pH 7.5), using a glass-Teflon tissue grinder. The homogenate was diluted to 5 ml with additional homogenization solution and centrifuged at 1,000×g for 10 min. This procedure was repeated on the new pellet and the resulting supernatant was centrifuged at 12,000×g for 20 min. A 3 layer discontinuous Percoll gradient consisting of 16 percent, 10 percent and 7.5 percent Percoll in HEPES-buffered sucrose was made with the final pellet dispersed in the top layer. […] Using this method, 30 to 90 percent of the dopamine was taken up into the synaptosomes, as determined by scintillation counting following filtration through glass fiber filters soaked with 0.5 percent polyethyleneimine. […] After the addition of 0.2 ml of a solution containing various concentrations of ligand, the perfusate was collected into scintillation vials at 1 min. intervals and the dopamine released was quantified by scintillation counting. Peaks of radioactivity released above background were summed and the average basal release during that time was subtracted from the total.

[3] = literature report; cited from earlier work; remark: listed apart in the source

## CN1CCC[C@H]1c1cccnc1 [Sample No. C-1, (S)-(-)-nicotine]
[1]
  effect towards the treatment of various CNS disorders: positive effect towards the treatment of various CNS disorders

## CNCC/C=C/c1cccnc1 [Sample No. 8, (E)-metanicotine]
[2]; Rattus norvegicus
  Emax: 80%

## CNCC/C=C\c1cccnc1 [Sample No. 5, (Z)-metanicotine]
[2]; release as percentage of release obtained with an equal concentration of (S)-(-)-nicotine
  Dopamine Release Emax: 88 % nicotine

## CN1CCCC1c1cccnc1 (stereo not shown) [nicotine]
[3]
  potentiation of certain pharmaceutical compositions used for treatment of certain CNS disorders: potentiates the pharmacological behavior of certain pharmaceutical compositions
